Reference: ChEMBL document CHEMBL5058646 (2022)

Columns and labels:
[1] = target: Glycogen synthase kinase-3 beta (Homo sapiens) (UniProt P49841); experiment: GSK3B SGC Tm panel (DSF); conditions: Compound concentration 20.0 uM
[2] = target: T1, Zinc finger and BTB domain-containing protein 40 (Homo sapiens) (UniProt Q9NUA8); conditions: SUD4, Compound concentration 1.0 uM
T1 sequence (whole entry): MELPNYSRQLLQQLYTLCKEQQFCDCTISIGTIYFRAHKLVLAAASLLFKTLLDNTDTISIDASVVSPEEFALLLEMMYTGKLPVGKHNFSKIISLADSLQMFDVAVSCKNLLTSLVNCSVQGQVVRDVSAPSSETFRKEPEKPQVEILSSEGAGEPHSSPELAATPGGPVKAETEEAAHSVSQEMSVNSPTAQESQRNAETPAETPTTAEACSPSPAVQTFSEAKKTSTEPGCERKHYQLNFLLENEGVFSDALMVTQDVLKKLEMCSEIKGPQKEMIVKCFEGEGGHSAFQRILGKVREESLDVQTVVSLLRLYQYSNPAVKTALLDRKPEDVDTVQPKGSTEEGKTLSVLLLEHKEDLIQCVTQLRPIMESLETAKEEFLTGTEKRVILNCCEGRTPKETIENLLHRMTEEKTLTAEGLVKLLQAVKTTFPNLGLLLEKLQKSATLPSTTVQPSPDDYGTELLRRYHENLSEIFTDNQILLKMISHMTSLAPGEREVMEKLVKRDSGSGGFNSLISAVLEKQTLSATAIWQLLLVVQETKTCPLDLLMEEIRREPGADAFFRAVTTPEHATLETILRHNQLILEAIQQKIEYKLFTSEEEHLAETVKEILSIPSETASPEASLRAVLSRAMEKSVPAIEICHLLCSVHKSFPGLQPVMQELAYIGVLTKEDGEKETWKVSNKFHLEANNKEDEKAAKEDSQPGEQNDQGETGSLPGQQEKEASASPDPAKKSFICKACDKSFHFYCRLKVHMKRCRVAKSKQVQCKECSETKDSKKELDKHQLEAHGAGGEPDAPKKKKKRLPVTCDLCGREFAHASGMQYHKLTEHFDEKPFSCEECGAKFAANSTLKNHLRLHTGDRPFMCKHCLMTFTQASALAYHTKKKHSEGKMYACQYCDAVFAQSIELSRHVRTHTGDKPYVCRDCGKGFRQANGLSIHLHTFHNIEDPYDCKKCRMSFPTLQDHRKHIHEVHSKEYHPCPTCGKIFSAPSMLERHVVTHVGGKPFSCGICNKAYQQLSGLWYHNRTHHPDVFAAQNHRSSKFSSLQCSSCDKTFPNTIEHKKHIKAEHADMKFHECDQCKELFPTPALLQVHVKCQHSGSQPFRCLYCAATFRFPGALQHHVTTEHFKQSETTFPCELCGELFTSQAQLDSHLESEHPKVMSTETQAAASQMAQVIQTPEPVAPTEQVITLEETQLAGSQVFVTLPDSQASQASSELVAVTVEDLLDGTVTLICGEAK

Sequence of Glycogen synthase kinase-3 beta (Homo sapiens) (P49841 whole entry, looked up, the tested form may be a part): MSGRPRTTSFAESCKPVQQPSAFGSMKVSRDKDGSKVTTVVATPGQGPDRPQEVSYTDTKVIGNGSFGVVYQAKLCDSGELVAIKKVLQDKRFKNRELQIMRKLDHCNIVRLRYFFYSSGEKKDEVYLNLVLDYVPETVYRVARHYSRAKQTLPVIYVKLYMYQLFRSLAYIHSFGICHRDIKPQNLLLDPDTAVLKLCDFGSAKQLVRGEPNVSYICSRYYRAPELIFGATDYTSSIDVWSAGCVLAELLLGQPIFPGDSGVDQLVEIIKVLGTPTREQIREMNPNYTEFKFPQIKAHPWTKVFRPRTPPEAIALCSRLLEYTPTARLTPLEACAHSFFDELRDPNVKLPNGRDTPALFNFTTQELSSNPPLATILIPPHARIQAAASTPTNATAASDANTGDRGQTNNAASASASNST

Molecule `C[C@@H]1CN(c2ncc(Cl)c(Nc3ccc4c(c3)n(CCC(C)(C)O)c(=O)n4C)n2)C[C@H](C)C1(F)F` has a Tm [1] of 45 °C and a LogFC [2] of 0.0845.
